Measurements reported in patent US20190209501A1, “COMPOSITIONS AND METHODS OF USE OF BETA-HYDROXY-BETA-METHYLBUTYRATE (HMB) […] IN[…]” (Texas Tech University Office of Research Commercialization, priority 2018, published 2019).

What was measured:
Type in all cases: in vivo, human
[1] = Resistance training workout volume; conditions: for LB Volume ES (d) / LS Session Volume ES (d) / UB Session Volume ES (d) / UB Volume ES (d): effect size; for LB Volume Δ / LB Volume Δ (%) / LS Session Volume Δ / LS Session Volume Δ (%) / UB Session Volume Δ / UB Session Volume Δ (%) / UB Volume Δ / UB Volume Δ (%): first to second 4 weeks
From the text: All groups completed 8 weeks of supervised RT in conjunction with the assigned dietary and supplementation programs. Training took place within the research laboratories under direct supervision. RT sessions were completed on 3 nonconsecutive days each week (i.e. Mondays, Wednesdays and Fridays), and upper- and lower-body sessions were alternated (Table 1).
Participants were instructed to train to momentary muscular exhaustion for each set, and the load was adjusted as necessary to ensure compliance with the specified repetition range. The weights and repetitions completed for each set of each exercise were recorded to allow for calculation of RT volume. Sessions took place between 12:00 and 18:00. […] Following each RT session, participants from each group were provided with 25 g whey protein (Elite 100% Whey, Dymatize Enterprises, LLC, Dallas, Tex. USA).

[2] = Resting energy expenditure and substrate utilization (RQ) via indirect calorimetry; conditions: for RMR Δ / RMR Δ (%) / RQ Δ / RQ Δ (%): baseline to W 8; for RMR ES (d) / RQ ES (d): effect size
Description: REE and substrate utilization were assessed via indirect calorimetry (TrueOne 2400. ParvoMedics, Sandy, Utah, USA). Gas and flow calibrations were performed each morning according to manufacturer specifications, and the pre-assessment procedures of Compher et al. (34) were utilized. Participants were instructed to remain motionless but awake during the assessment, which took place in a climate-controlled room with the lights dimmed. The first five minutes of each test were discarded, and the assessment continued until there was a period of 5 consecutive minutes with a coefficient of variation (CV) for REE of ≤5%. The average CV for REE in the present study was 3.2±1.1% (mean±SD).

[3] = Percent body fat by underwater weighing, HMB without intermittent fasting (Panton et al.); conditions: 3 g/d Calcium-HMB without intermittent fasting + RT
Description: In an earlier study described in Panton et al. (54) trained and untrained females (n=18, 27±2.1 y, 62.3±2.2 kg) were randomized to 3 g/d Calcium-HMB without intermitted fasting. The HMB only group completed 4 weeks of supervised resistance training and trained three times per week. Body composition was measured before and after the 4 weeks of training using underwater weighing procedures (55). Percent body fat (BF %) was estimated from the Siri equation^5.

CC(C)(O)CC(=O)O [TRFHMB, β-hydroxy-β-methylbutyrate]
LB Volume ([1]; ITT, First 4 weeks): 50374 ± 4107 kg
LS Session Volume ([1]; ITT, First 4 weeks): 8734 ± 659 kg
UB Session Volume ([1]; ITT, First 4 weeks): 2722 ± 210 kg
UB Volume ([1]; ITT, First 4 weeks): 15715 ± 1317 kg
LB Volume ([1]; ITT, Second 4 weeks): 56873 ± 4655 kg
LS Session Volume ([1]; ITT, Second 4 weeks): 10978 ± 902 kg
UB Session Volume ([1]; ITT, Second 4 weeks): 3336 ± 215 kg
UB Volume ([1]; ITT, Second 4 weeks): 17437 ± 1298 kg
LB Volume ES (d) ([1]; ITT): 0.41
LS Session Volume ES (d) ([1]; ITT): 0.79
UB Session Volume ES (d) ([1]; ITT): 0.80
UB Volume ES (d) ([1]; ITT): 0.37
LB Volume Δ ([1]; ITT): 6499 kg
LB Volume Δ (%) ([1]; ITT): 13%
LS Session Volume Δ ([1]; ITT): 2244 kg
LS Session Volume Δ (%) ([1]; ITT): 26%
UB Session Volume Δ ([1]; ITT): 614 kg
UB Session Volume Δ (%) ([1]; ITT): 23%
UB Volume Δ ([1]; ITT): 1722 kg
UB Volume Δ (%) ([1]; ITT): 11%
LB Volume ([1]; PP, First 4 weeks): 54729 ± 5724 kg
LS Session Volume ([1]; PP, First 4 weeks): 9434 ± 944 kg
UB Session Volume ([1]; PP, First 4 weeks): 2869 ± 303 kg
UB Volume ([1]; PP, First 4 weeks): 16696 ± 1851 kg
LB Volume ([1]; PP, Second 4 weeks): 60345 ± 6263 kg
LS Session Volume ([1]; PP, Second 4 weeks): 11915 ± 1281 kg
UB Session Volume ([1]; PP, Second 4 weeks): 3463 ± 297 kg
UB Volume ([1]; PP, Second 4 weeks): 17923 ± 1749 kg
LB Volume ES (d) ([1]; PP): 0.34
LS Session Volume ES (d) ([1]; PP): 0.83
UB Session Volume ES (d) ([1]; PP): 0.75
UB Volume ES (d) ([1]; PP): 0.26
LB Volume Δ ([1]; PP): 5616 kg
LB Volume Δ (%) ([1]; PP): 10%
LS Session Volume Δ ([1]; PP): 2481 kg
LS Session Volume Δ (%) ([1]; PP): 26%
UB Session Volume Δ ([1]; PP): 594 kg
UB Session Volume Δ (%) ([1]; PP): 21%
UB Volume Δ ([1]; PP): 1227 kg
UB Volume Δ (%) ([1]; PP): 7%
RMR ([2]; ITT, Baseline): 1466 ± 48 kcal/day
RQ ([2]; ITT, Baseline): 0.82 ± 0.02 au
RMR ([2]; ITT, W 8): 1481 ± 44 kcal/day
RMR Δ ([2]; ITT): 15 kcal/day
RMR Δ (%) ([2]; ITT): 1%
RQ Δ ([2]; ITT): −0.03 au
RQ Δ (%) ([2]; ITT): −4%
RMR ES (d) ([2]; ITT): 0.09
RQ ES (d) ([2]; ITT): −0.42
RMR ([2]; PP, Baseline): 1472 ± 61 kcal/day
RQ ([2]; PP, Baseline): 0.81 ± 0.03 au
RMR ([2]; PP, W 8): 1519 ± 57 kcal/day
RQ ([2]; PP, W 8): 0.78 ± 0.02 au
RMR Δ ([2]; PP): 47 kcal/day
RMR Δ (%) ([2]; PP): 3%
RQ Δ ([2]; PP): −0.03 au
RQ Δ (%) ([2]; PP): −4%
RMR ES (d) ([2]; PP): 0.30
RQ ES (d) ([2]; PP): −0.44
Resting metabolic rate change ([2]; versus baseline): +47 kcal/d
Resting metabolic rate change (%) ([2]; versus baseline): 3%
BF % 4-week effect size (d) [3]: −0.15
